Our source for the IC50 values is patent publication US20240277683A1, “COMPOUNDS” (CTXT PTY LTD, priority 2018, published 2024).

Where two headings read alike, the source gives them in different places.

The term IC50 denotes the concentration needed to halve the response being measured.

Experiment [1] concerns histone H2A.Z Lysine 7 acetylation marker in U2OS cells. The experiment in a line: H2A.Z Lysine 7 Acetylation Biomarker Assay. The following applies: Homo sapiens. It counts as cell-based. The procedure:
Compounds may be tested for their ability to inhibit the histone H2A.Z Lysine 7 acetylation marker in the following assay:
(§1) The cell line U2OS was seeded at a density of 3,000 cells per well in 384-well optical quality tissue culture plates in RPMI medium supplemented with 10% foetal bovine serum and 10 mM Hepes. The cells were allowed to adhere for 24 hours under standard culture conditions (37 degree Celsius, 5% CO2). At the end of this period the cells were washed with serum free medium. […] Plates were washed and read on a PerkinElmer Opera HCS high content imaging platform.

For experiment [2], the system named is acetylation of the histone H3 Lysine 14 marker in U2OS cells. Kind of experiment: Histone H3 Lysine 14 Acetylation Biomarker Assay. Format: cell-based. The following applies: Homo sapiens. Here is the method: Compounds may be tested for their ability to inhibit acetylation of the histone H3 Lysine 14 marker in the following assay:
as §1

Experiment [3] has as its system acetylation of the histone H3K23 marker in U2OS cells. Kind of experiment: Histone H3 Lysine 23 Acetylation Biomarker Assay. It counts as cell-based. The settings on record: Homo sapiens. Here is the method: Compounds may be tested for their ability to inhibit acetylation of the histone H3K23 marker in the following assay:
The cell line U2OS was seeded at a density of 9,000 cells per well in 96 well optical quality tissue culture plates in RPMI medium and 10% foetal bovine serum, and allowed to adhere for 24 hours under standard culture conditions (37 degree Celsius, 5% CO2). At the end of this period the medium was aspirated. […] After incubation for 24 hours, the cells were fixed with 3.7% formaldehyde in PBS for 20 minutes at room temperature, washed (5×5 minutes) with phosphate buffer saline containing 0.1% Tween 20 and blocked with Odyssey blocking buffer (LI-COR, Lincoln, NE) containing 0.1% TritonX100. Anti-H3K23ac specific antibody (Abcam ab177275) in Odyssey blocking buffer containing 0.1% Tween 20 was added and incubated for 16 hours at 4 degree Celsius. […] Plates were washed as previously and read on a PerkinElmer Phenix high content imaging platform.

In experiment [4] the target is TIP60-KAT5 (Homo sapiens (Human), UniProt Q92993). The experiment in a line: Acetyltransferase biochemical assay (AlphaScreen), KAT5. The settings on record: 1 μM AcCoA, histone H4.
Sequence of TIP60-KAT5 (Q92993 other isoform, or with tags, fused parts or gaps): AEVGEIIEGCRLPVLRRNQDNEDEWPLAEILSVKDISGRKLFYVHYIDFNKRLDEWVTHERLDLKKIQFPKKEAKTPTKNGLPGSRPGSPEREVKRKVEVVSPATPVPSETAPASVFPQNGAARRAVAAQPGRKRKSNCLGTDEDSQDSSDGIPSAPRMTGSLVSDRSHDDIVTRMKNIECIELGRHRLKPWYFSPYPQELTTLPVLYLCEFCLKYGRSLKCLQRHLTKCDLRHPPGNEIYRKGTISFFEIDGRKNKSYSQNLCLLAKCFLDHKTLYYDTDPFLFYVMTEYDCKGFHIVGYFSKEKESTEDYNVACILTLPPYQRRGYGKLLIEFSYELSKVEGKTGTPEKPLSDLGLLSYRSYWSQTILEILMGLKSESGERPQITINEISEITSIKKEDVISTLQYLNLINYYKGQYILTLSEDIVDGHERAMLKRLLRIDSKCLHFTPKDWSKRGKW
The target in experiment [5] is HBO-KAT7 (Homo sapiens (Human), UniProt O95251). Kind of experiment: Acetyltransferase biochemical assay (AlphaScreen), KAT7. The settings on record: 1 μM AcCoA, histone H3.1.
Sequence of HBO-KAT7 (O95251 other isoform, or with tags, fused parts or gaps): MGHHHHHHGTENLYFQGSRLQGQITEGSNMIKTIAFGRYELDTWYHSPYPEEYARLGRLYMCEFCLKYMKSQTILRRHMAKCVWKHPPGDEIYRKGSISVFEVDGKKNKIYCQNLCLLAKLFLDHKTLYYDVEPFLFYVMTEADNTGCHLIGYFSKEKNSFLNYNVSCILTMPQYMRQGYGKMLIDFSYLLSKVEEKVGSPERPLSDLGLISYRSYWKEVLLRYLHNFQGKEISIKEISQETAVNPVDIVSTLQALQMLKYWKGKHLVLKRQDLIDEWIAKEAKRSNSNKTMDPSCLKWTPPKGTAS
[6] abbreviates: H2A.ZK7ac, U2OS cells, serum free medium, 24 hours, read-out: IC50.
Setting [7] is: H3K14ac, U2OS cells, serum free medium, 24 hours, read-out: IC50.
Setting [8] is: H3K23ac, U2OS cells, 24 hours, read-out: IC50.

In the case of `COc1ccccc1-c1cc(NS(=O)(=O)c2ccccc2)no1` [Example 3, N-(5-(2-Methoxyphenyl)isoxazol-3-yl)benzenesulfonamide], the IC50 in experiment [1] (U2OS, 24 h) is more than 40 µM; in experiment [2] (U2OS, 24 h), 39.2 µM; in experiment [3] (U2OS, 24 h), more than 10 µM.
Regarding `CCOc1ccccc1-c1cc(NS(=O)(=O)c2c(OC)cccc2OC)no1` [Example 5, N-(5-(2-Ethoxyphenyl)isoxazol-3-yl)-2,6-dimethoxybenzenesulfonamide], the IC50 in experiment [1] (U2OS, 24 h) turned out to be 5.64 µM; in experiment [2] (U2OS, 24 h), 2.33 µM; in experiment [3] (U2OS, 24 h), 0.895 µM.
With `COc1ccc(OC)c(-c2cc(NS(=O)(=O)c3c(OC)cc(-c4ccccc4)cc3OC)no2)c1` [Example 6, N-(5-(2,5-Dimethoxyphenyl)isoxazol-3-yl)-3,5-dimethoxy-[1,1′-biphenyl]-4-sulfonamide], the IC50 was 1.35 µM in experiment [1] (U2OS, 24 h); 0.526 µM in experiment [2] (U2OS, 24 h); 0.471 µM in experiment [3] (U2OS, 24 h).
For the compound `COc1ccc(OC)c(-c2cc(NS(=O)(=O)c3c(OC)cccc3OC)no2)c1` [Example 7, N-(5-(2,5-Dimethoxyphenyl)isoxazol-3-yl)-2,6-dimethoxybenzenesulfonamide], the 50% inhibitory concentration (IC50) in experiment [1] (U2OS, 24 h) was 2.19 µM; in experiment [2] (U2OS, 24 h), 0.496 µM; in experiment [3] (U2OS, 24 h), 0.0491 µM.
On to `COc1ccc(C2CC2)cc1-c1cc(NS(=O)(=O)c2c(OC)cccc2OC)no1` [Example 8, N-(5-(5-Cyclopropyl-2-methoxyphenyl)isoxazol-3-yl)-2,6-dimethoxybenzenesulfonamide], for which the IC50 in experiment [1] (U2OS, 24 h) turned out to be 3.27 µM; in experiment [2] (U2OS, 24 h), 0.345 µM; in experiment [3] (U2OS, 24 h), 0.0518 µM.
For the compound `COc1ccc(OC(C)C)c(-c2cc(NS(=O)(=O)c3c(OC)cccc3OC)no2)c1` [Example 14, N-(5-(2-Isopropoxy-5-methoxyphenyl)isoxazol-3-yl)-2,6-dimethoxybenzenesulfonamide], the 50% inhibitory concentration (IC50) in experiment [1] (setting [6]) was found to be 2.5 µM; in experiment [2] (setting [7]), 0.22 µM; in experiment [3] (setting [8]), 0.133 µM.
As for `COc1ccc(Cl)cc1-c1cc(NS(=O)(=O)c2c(OC)cccc2OC)no1` [Example 15, N-(5-(5-Chloro-2-methoxyphenyl)isoxazol-3-yl)-2,6-dimethoxybenzenesulfonamide], the IC50 was determined as 12.1 µM in experiment [1] (setting [6]), 0.45 µM in experiment [2] (setting [7]) and 0.141 µM in experiment [3] (setting [8]).
In the case of `CCOc1ccc(OC)cc1-c1cc(NS(=O)(=O)c2c(OC)cccc2OC)no1` [Example 16, N-(5-(2-Ethoxy-5-methoxyphenyl)isoxazol-3-yl)-2,6-dimethoxybenzenesulfonamide], the IC50 was 1.77 µM in experiment [1] (setting [6]), 0.193 µM in experiment [2] (setting [7]) and 0.117 µM in experiment [3] (setting [8]).
The corresponding values for `COc1ccccc1-c1nnc(NS(=O)(=O)c2c(OC)cccc2OC)s1` [Example 17, 2,6-Dimethoxy-N-(5-(2-methoxyphenyl)-1,3,4-thiadiazol-2-yl)benzenesulfonamide] are 29.3 µM, 3.2 µM and 2.26 µM.
As to `COc1ccc(-c2ncco2)cc1-c1cc(NS(=O)(=O)c2c(OC)cccc2OC)no1` [Example 18, 2,6-Dimethoxy-N-(5-(2-methoxy-5-(oxazol-2-yl)phenyl)isoxazol-3-yl)benzenesulfonamide], the values for the 50% inhibitory concentration (IC50) in experiment [1] (setting [6]), in experiment [2] (setting [7]) and in experiment [3] (setting [8]) were 19.9 µM, 3.84 µM and 1.53 µM, respectively.
Turning to `COc1cccc(OC)c1S(=O)(=O)Nc1cc(-c2ccccc2OC(F)(F)F)on1` [Example 22, 2,6-Dimethoxy-N-(5-(2-(trifluoromethoxy)phenyl)isoxazol-3-yl)benzenesulfonamide], the IC50 in experiment [1] (U2OS, 24 h) came out at 4.77 µM; in experiment [2] (U2OS, 24 h) it was 0.762 µM; in experiment [3] (U2OS, 24 h), 2.13 µM.
For `CCc1ccc(OC)cc1-c1cc(NS(=O)(=O)c2c(OC)cccc2OC)no1` [Example 23, N-(5-(2-Ethyl-5-methoxyphenyl)isoxazol-3-yl)-2,6-dimethoxybenzenesulfonamide], the results for the 50% inhibitory concentration (IC50) in experiment [1] (setting [6]), in experiment [2] (setting [7]) and in experiment [3] (setting [8]) were 9.99 µM, 0.216 µM and 0.178 µM, respectively.
On to `O=S(=O)(Nc1cc(-c2ccccc2)on1)c1cccnc1` [Example 30, N-(5-phenylisoxazol-3-yl)pyridine-3-sulfonamide], for which the half-maximal inhibitory concentration (IC50) in experiment [4] and in experiment [5] was more than 125 µM in each case.
As for `O=S(=O)(Nc1cc(-c2ccccc2)on1)c1cccc(Cl)c1` [Example 35, 3-chloro-N-(5-phenylisoxazol-3-yl)benzenesulfonamide], the 50% inhibitory concentration (IC50) in experiment [4] and in experiment [5] was more than 125 µM throughout.
With `COc1cccc(S(=O)(=O)Nc2cc(-c3ccccc3)on2)c1` [Example 36, 3-methoxy-N-(5-phenylisoxazol-3-yl)benzenesulfonamide], the IC50 in experiment [4] was more than 125 µM.
On to `N#Cc1cccc(S(=O)(=O)Nc2cc(-c3ccccc3)on2)c1` [Example 46, 3-cyano-N-(5-phenylisoxazol-3-yl)benzenesulfonamide], for which the IC50 in experiment [4] is more than 125 µM.
In turn, `O=S(=O)(Nc1cc(-c2ccccc2)on1)c1ccc(C(F)(F)F)cc1` [Example 47, N-(5-phenylisoxazol-3-yl)-4-(trifluoromethyl)benzenesulfonamide] showed an IC50 in experiment [4] of more than 125 µM.
With `COc1ccccc1-c1cc(NS(=O)(=O)c2c(OC)cccc2OC)no1` [Example 56, 2,6-Dimethoxy-N-(5-(2-methoxyphenyl)isoxazol-3-yl)benzenesulfonamide], the concentration for half-maximal inhibition (IC50) came out at 24.1 µM in experiment [1] (U2OS, 24 h); 2.64 µM in experiment [2] (U2OS, 24 h); 2.07 µM in experiment [3] (U2OS, 24 h).
On to `CCc1ccc(OC)c(S(=O)(=O)Nc2cc(-c3ccccc3OC)on2)c1` [Example 58, 5-Ethyl-2-methoxy-N-(5-(2-methoxyphenyl)isoxazol-3-yl)benzenesulfonamide], for which the IC50 in experiment [1] (U2OS, 24 h) was more than 40 µM; in experiment [2] (U2OS, 24 h), 22.4 µM.
Take `O=S(=O)(Nc1noc(-c2ccccc2)n1)c1ccccc1F` [Example 68, 2-Fluoro-N-(5-phenyl-1,2,4-oxadiazol-3-yl)benzenesulfonamide]: the concentration for half-maximal inhibition (IC50) in experiment [4] and in experiment [5] was more than 125 µM in each case.
For the compound `COc1ccc(-c2ccn[nH]2)cc1-c1cc(NS(=O)(=O)c2c(OC)cccc2OC)no1` [Example 72, 2,6-Dimethoxy-N-(5-(2-methoxy-5-(1H-pyrazol-5-yl)phenyl)isoxazol-3-yl)benzenesulfonamide], the IC50 in experiment [1] (U2OS, 24 h) is 4.73 µM; in experiment [2] (U2OS, 24 h) it was 0.575 µM; in experiment [3] (U2OS, 24 h), 0.204 µM.
`COCc1ccc(OC)c(-c2cc(NS(=O)(=O)c3c(OC)cccc3OC)no2)c1` [Example 73, 2,6-Dimethoxy-N-(5-(2-methoxy-5-(methoxymethyl)phenyl)isoxazol-3-yl)benzenesulfonamide]: the IC50 in experiment [1] (U2OS, 24 h) amounted to 35.2 µM; in experiment [2] (U2OS, 24 h), 1.29 µM; in experiment [3] (U2OS, 24 h), 0.0171 µM.
Take `COC(=O)c1c(-c2ccc(OC)cc2)noc1NS(=O)(=O)c1ccc(C)c(C)c1` [Example 83, methyl 5-((3,4-dimethylphenyl)sulfonamido)-3-(4-methoxyphenyl)isoxazole-4-carboxylate]: the half-inhibitory concentration (IC50) in experiment [5] was more than 125 µM.
`CCc1ccc(OC)c(S(=O)(=O)Nc2cc(-c3ccncc3)no2)c1` [Example 85, 5-Ethyl-2-methoxy-N-(3-(pyridin-4-yl)isoxazol-5-yl)benzenesulfonamide] gave a 50% inhibitory concentration (IC50) in experiment [4] of more than 125 µM.
As to `COCc1ccc(OC)cc1-c1nnc(NS(=O)(=O)c2c(OC)cccc2OC)s1` [Example 96, 2,6-Dimethoxy-N-(5-(5-methoxy-2-(methoxymethyl)phenyl)-1,3,4-thiadiazol-2-yl)benzenesulfonamide], the values for the half-maximal inhibitory concentration (IC50) in experiment [1] (setting [6]), in experiment [2] (setting [7]) and in experiment [3] (setting [8]) were 27.2 µM, 7.38 µM and 3.94 µM, respectively.
Turning to `COc1ccccc1-c1cc(NS(=O)(=O)C2CCCCC2)no1` [Example 102, N-(5-(2-Methoxyphenyl)isoxazol-3-yl)cyclohexanesulfonamide], the 50% inhibitory concentration (IC50) in experiment [1] (setting [6]) is more than 40 µM; in experiment [2] (setting [7]), 25.6 µM.
For the compound `COc1ccc(-n2cccn2)cc1-c1cc(NS(=O)(=O)c2c(OC)cccc2OC)no1` [Example 105, 2,6-Dimethoxy-N-(5-(2-methoxy-5-(1H-pyrazol-1-yl)phenyl)isoxazol-3-yl)benzenesulfonamide], the 50% inhibitory concentration (IC50) was determined as 17.1 µM in experiment [1] (setting [6]), 3 µM in experiment [2] (setting [7]) and 0.173 µM in experiment [3] (setting [8]).
In the case of `COc1ccccc1-c1cc(NS(=O)(=O)Nc2ccccc2)no1` [Example 116, N-Phenyl((5-(2-methoxyphenyl)-1,2-oxazol-3-yl)amino)sulfonamide], the IC50 in experiment [1] (U2OS, 24 h) is more than 40 µM; in experiment [2] (U2OS, 24 h) it was more than 40 µM; in experiment [3] (U2OS, 24 h), more than 20 µM.
In experiment [4], `CCc1ccc(OC)c(S(=O)(=O)Nc2nnc(-c3ccc(OC)c(OC)c3)o2)c1` [Example 125, N-(5-(3,4-Dimethoxyphenyl)-1,3,4-oxadiazol-2-yl)-5-ethyl-2-methoxybenzenesulfonamide] gave an IC50 of more than 125 µM.
